In PubChem BioAssay (NCI):
Values joined by “and” are separate entries in the source; they are usually repeats but may differ in a detail not shown here. Identical values can stand only once.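 Growth conditions: 96-well plates. Treatment: test compound, 48 hours, 5 concentrations. Analysis: linear interpolation between bracketing concentrations; unreached endpoints set to highest concentration. GI50 = concentration required for 50% inhibition of growth. The concentration for full growth arrest is given as TGI.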

Tests used:
Test in all cases: NCI tumour cell line growth inhibition, 48 h
HCC-2998 colon = system: HCC-2998 colon
KM12 colon = system: KM12 colon
SW-620 colon = system: SW-620 colon
HL-60(TB) leukemia = system: HL-60(TB) leukemia
NCI/ADR-RES ovarian = system: NCI/ADR-RES ovarian
NCI-H226 lung = system: NCI-H226 lung
MOLT-4 leukemia = system: MOLT-4 leukemia
SF-295 CNS = system: SF-295 CNS
K-562 leukemia = system: K-562 leukemia
CAKI-1 renal = system: CAKI-1 renal

| Compound | GI50 (HCC-2998 colon) [µM] | TGI (HCC-2998 colon) [µM] | GI50 (KM12 colon) | TGI (KM12 colon) | GI50 (SW-620 colon) | TGI (SW-620 colon) | GI50 (HL-60(TB) leukemia) | TGI (HL-60(TB) leukemia) [µM] | GI50 (NCI/ADR-RES ovarian) [µM] | TGI (NCI/ADR-RES ovarian) | GI50 (NCI-H226 lung) | TGI (NCI-H226 lung) | GI50 (MOLT-4 leukemia) | TGI (MOLT-4 leukemia) | GI50 (SF-295 CNS) | TGI (SF-295 CNS) | GI50 (K-562 leukemia) | TGI (K-562 leukemia) | GI50 (CAKI-1 renal) | TGI (CAKI-1 renal) |
| --- | --- | --- | --- | --- | --- | --- | --- | --- | --- | --- | --- | --- | --- | --- | --- | --- | --- | --- | --- | --- |
| N#CC1=C(/N=C/c2ccccc2)Oc2c(ccc3ccccc23)C1c1ccccc1 (stereo not given) | 1.2 | > 67.9 | 0.46 µM | > 100 µM | 0.405 µM | > 100 µM | 0.295 µM | 0.991 | 0.285 | 1.05 µM | 1.13 µM | > 100 µM | 0.935 µM | > 100 µM | 0.357 µM | > 100 µM | 0.358 µM | > 100 µM | 0.31 µM | > 53.7 µM |
| COc1cc(/C=C/C(=O)c2cccc(-n3cc(-c4ccc(Cl)cc4)[nH]c3=O)c2)cc(OC)c1OC | 2.46 | 7.36 | 5.45 µM | 18.6 µM | 1.75 µM | 3.17 µM | 15.7 µM | > 100 | 2.36 | 7.3 µM | > 100 µM | > 100 µM | 5.24 µM | > 100 µM | 24.3 µM | > 100 µM | 3.69 µM | > 100 µM | 15.6 µM | 95.5 µM |
| CC(C)(Br)C(=O)C(Br)Br |  | 30.8 | 5.8 µM | 30.8 µM and 11.7 µM | 5.12 µM | 3.59 µM and 10.4 µM | 6.35 µM |  |  | 12.6 µM | 7.5 µM | 30.6 µM and 21.3 µM |  | 5.1 µM | 21.1 µM | 32.8 µM and 63.3 µM | 2.28 µM |  | 5.21 µM | 3.81 µM and 9.43 µM |
| COc1ccc(N(CC(=O)NCCC[Te]c2ccccc2)C(=O)CNC(=O)OC(C)(C)C)cc1 | 2.6 | 6.6 | 3.33 µM | 11.4 µM | 3.44 µM | 14.4 µM | 2.08 µM | 5.6 | 2.91 | 7.16 µM | 2.29 µM | 5.36 µM | 3.08 µM | 9.89 µM | 1.27 µM | 4.11 µM | 5.5 µM | > 100 µM | 2.1 µM | 5.6 µM |
| O=C(CC1(O)C(=O)N(Cc2ccccc2)c2ccccc21)c1ccc(C(=O)NCC2CCC3(CC2)OOC2(CCCCC2)OO3)cc1 (stereo not given) | 2.3 | 5.06 | 0.988 µM | 2.58 µM | 3.56 µM | > 41.5 µM | 0.539 µM | 2.09 | 1.18 | 3.47 µM | 3.5 µM | 10.8 µM | 1.89 µM | 4.61 µM | 1.3 µM | 5.11 µM | 1.72 µM | 4.83 µM | 0.577 µM | 1.14 µM |
| O=C(/C=C/c1cccc(O)c1)c1cccc(-n2cc(-c3ccccc3)[nH]c2=O)c1 | 8.27 | 20.2 | 1.78 µM | 3.46 µM | 2.13 µM | 4.74 µM | 3.27 µM | 17.5 | 3.94 | 15.3 µM | 8.48 µM | 28.5 µM | 3.38 µM | > 27.3 µM | 5.77 µM | 11.8 µM | 2.52 µM | > 24.8 µM | 4.95 µM | 10.5 µM |
| O=C1OC(C(O)CO)C(O)=C1O (stereo not given) | > 10000 | > 10000 | 1790 µM and > 3990 µM | 3270 µM and > 5430 µM | 191 µM and 189 µM | 408 µM and 412 µM | 5590 µM and 5090 µM | > 10000 | 2450 | 5930 µM and > 6010 µM | 2150 µM and 4450 µM | 4870 µM and > 6830 µM | 2130 µM and 1550 µM | 5040 µM and > 4890 µM | 6830 µM and > 4590 µM | > 10000 µM | 378 µM and 337 µM | 1460 µM and 1210 µM | 1880 µM and 2150 µM | 3350 µM and 4620 µM |
| CCC1(O)C(=O)OCc2c1cc1n(c2=O)Cc2cc3c(NC(=O)CN)cccc3nc2-1 (stereo not given) | 5.07 | 25.6 | 1.87 µM | 44.7 µM | 1.75 µM | 97.9 µM | 0.129 µM | 1.64 | 0.296 | 1.51 µM | 0.385 µM | 4.29 µM | 0.0438 µM | 1.13 µM | 0.368 µM | 28 µM | 1.07 µM | > 100 µM | 0.205 µM | 8.37 µM |
| COC(=O)[C@H]1CCCN1C(=O)[C@H]1CCCN1C(=O)[C@@H](Cc1c[nH]c2ccccc12)NC(=S)Nc1cc(C(F)(F)F)cc(C(F)(F)F)c1 | 1.82 | 3.3 | 1.88 µM | 3.92 µM | 2 µM | 4.62 µM | 2.38 µM | 6.03 | 3.45 | 12.5 µM | 3.08 µM | 11.7 µM | 2.38 µM | 7.6 µM | 1.67 µM | 3.17 µM | 2.4 µM | 5.52 µM | 2.1 µM | 5.63 µM |
| COC1=C(OC)C(=O)C(SC/C=C(\C)CCCC(C)CCCC(C)CCCC(C)C)=CC1=O (stereo not given) | 2.37 | > 100 | 0.934 µM | > 87.9 µM | 0.872 µM | > 100 µM | 0.359 µM | 3.41 | 0.784 | > 46.7 µM | 2.75 µM | > 100 µM | 1.41 µM | > 100 µM | 0.734 µM | 2.88 µM | 0.678 µM | > 100 µM | 6.64 µM | > 37 µM |
| Nc1nc(Nc2ccccc2SSc2ccccc2Nc2nc(N)nc(C(Cl)(Cl)Cl)n2)nc(C(Cl)(Cl)Cl)n1 | 30.1 | > 100 | 4.05 µM | 28.9 µM | 2.67 µM | 7.99 µM | 2.55 µM | 12.1 | 3.68 | 16.6 µM | 3.49 µM | 15.9 µM | 3.22 µM | 18.1 µM | 1.99 µM | 4.75 µM | 3.93 µM | 17.7 µM | 3.01 µM | 10.5 µM |
